Results taken from patent US20250152661A1, “NOVEL COMBINATION TREATMENT REGIMEN OF BACTERIAL INFECTIONS” (BONE SUPPORT AB, priority 2022, published 2025).
In brackets after ≈: the same amount, converted by molar mass. Where two headings read alike, the source gives them in different places.

Key:
[1] = test system: S. aureus clinical strain P-3; experiment: MIC values predetermined using MALDI-TOF MS system (Vitek MS); assay type: cell-based, Staphylococcus aureus
S. aureus ATCC 25923 = experiment: as above; assay type: cell-based, Staphylococcus aureus

Which MIC ([1]; S. aureus clinical strain P-3) does the source give for gentamicin here?
The MIC was 0.5 µg/mL.

What about the MIC (S. aureus ATCC 25923; S. aureus ATCC 25923) of the same compound?
The MIC was 0.064 µg/mL.

Which MIC ([1]; Staphylococcus aureus) does the source give for `CN[C@H](CC(C)C)C(=O)N[C@H]1C(=O)N[C@@H](CC(N)=O)C(=O)N[C@H]2C(=O)N[C@H]3C(=O)N[C@H](C(=O)N[C@H](C(=O)O)c4cc(O)cc(O)c4-c4cc3ccc4O)[C@H](O)c3ccc(c(Cl)c3)Oc3cc2cc(c3O[C@@H]2O[C@H](CO)[C@@H](O)[C@H](O)[C@H]2O[C@H]2C[C@](C)(N)[C@H](O)[C@H](C)O2)Oc2ccc(cc2Cl)[C@H]1O` [VAN, Vancomycin] here?
Its MIC is 1 µg/mL (≈ 0.69 µM).

And the MIC (S. aureus ATCC 25923; Staphylococcus aureus, ATCC25923)?
The MIC was 2 µg/mL (≈ 1.38 µM).

Which results are given for `CO[C@H]1/C=C/O[C@@]2(C)Oc3c(C)c(O)c4c(O)c(c(/C=N/N5CCN(C)CC5)c(O)c4c3C2=O)NC(=O)/C(C)=C\C=C\[C@H](C)[C@H](O)[C@@H](C)[C@@H](O)[C@@H](C)[C@H](OC(C)=O)[C@@H]1C` [RIF, rifampicin]?
MIC ([1]; Staphylococcus aureus, S. aureus clinical strain P-3, read-out: MIC): 0.008 µg/mL (≈ 0.00972 µM); MIC (S. aureus ATCC 25923; Staphylococcus aureus, ATCC25923, S. aureus ATCC 25923, read-out: MIC): 0.008 µg/mL (≈ 0.00972 µM)
